Test results as given in patent US12139487B2, “Compounds and uses thereof” (Foghorn Therapeutics Inc., priority 2022, dated 2024).

Legend:
[1] = biological target: T1, BRG-1 (Homo sapiens, UniProt P51532); assay: ATPase catalytic activity assay (ADP-Glo), BRG-1; format: biochemical; conditions: Table 10, read-out: BRG1 IC50
T1 construct: made in house; host or cells: High Five insect cells
Protocol: (§1) The ATPase catalytic activity of BRM or BRG-1 was measured by an in vitro biochemical assay using ADP-Glo™ (Promega, V9102). The ADP-Glo™ kinase assay is performed in two steps once the reaction is complete. The first step is to deplete any unconsumed ATP in the reaction. The second step is to convert the reaction product ADP to ATP, which will be utilized by the luciferase to generate luminesce and be detected by a luminescence reader, such as Envision.
Then, following addition of 5 μL of ADP-Glo™ Reagent provided in the kit, the reaction incubates at room temperature for 40 minutes. Then, 10 μL of Kinase Detection Reagent provided in the kit is added to convert ADP to ATP, and the reaction incubates at room temperature for 60 minutes. Finally, luminescence measurement is collected with a plate-reading luminometer, such as Envision.

[2] = biological target: T2, BRM (Homo sapiens, UniProt P51531); assay: ATPase catalytic activity assay (ADP-Glo), BRM; format: biochemical; conditions: Table 10; for Ratio (BRG1 IC50 (μM) divided by BRM IC50 (μM)): ATPase assay, selectivity BRG1/BRM; for IC50: ATPase catalytic activity assay (ADP-Glo)
T2 construct: made in house; host or cells: High Five insect cells
T2 sequence (P51531 whole entry): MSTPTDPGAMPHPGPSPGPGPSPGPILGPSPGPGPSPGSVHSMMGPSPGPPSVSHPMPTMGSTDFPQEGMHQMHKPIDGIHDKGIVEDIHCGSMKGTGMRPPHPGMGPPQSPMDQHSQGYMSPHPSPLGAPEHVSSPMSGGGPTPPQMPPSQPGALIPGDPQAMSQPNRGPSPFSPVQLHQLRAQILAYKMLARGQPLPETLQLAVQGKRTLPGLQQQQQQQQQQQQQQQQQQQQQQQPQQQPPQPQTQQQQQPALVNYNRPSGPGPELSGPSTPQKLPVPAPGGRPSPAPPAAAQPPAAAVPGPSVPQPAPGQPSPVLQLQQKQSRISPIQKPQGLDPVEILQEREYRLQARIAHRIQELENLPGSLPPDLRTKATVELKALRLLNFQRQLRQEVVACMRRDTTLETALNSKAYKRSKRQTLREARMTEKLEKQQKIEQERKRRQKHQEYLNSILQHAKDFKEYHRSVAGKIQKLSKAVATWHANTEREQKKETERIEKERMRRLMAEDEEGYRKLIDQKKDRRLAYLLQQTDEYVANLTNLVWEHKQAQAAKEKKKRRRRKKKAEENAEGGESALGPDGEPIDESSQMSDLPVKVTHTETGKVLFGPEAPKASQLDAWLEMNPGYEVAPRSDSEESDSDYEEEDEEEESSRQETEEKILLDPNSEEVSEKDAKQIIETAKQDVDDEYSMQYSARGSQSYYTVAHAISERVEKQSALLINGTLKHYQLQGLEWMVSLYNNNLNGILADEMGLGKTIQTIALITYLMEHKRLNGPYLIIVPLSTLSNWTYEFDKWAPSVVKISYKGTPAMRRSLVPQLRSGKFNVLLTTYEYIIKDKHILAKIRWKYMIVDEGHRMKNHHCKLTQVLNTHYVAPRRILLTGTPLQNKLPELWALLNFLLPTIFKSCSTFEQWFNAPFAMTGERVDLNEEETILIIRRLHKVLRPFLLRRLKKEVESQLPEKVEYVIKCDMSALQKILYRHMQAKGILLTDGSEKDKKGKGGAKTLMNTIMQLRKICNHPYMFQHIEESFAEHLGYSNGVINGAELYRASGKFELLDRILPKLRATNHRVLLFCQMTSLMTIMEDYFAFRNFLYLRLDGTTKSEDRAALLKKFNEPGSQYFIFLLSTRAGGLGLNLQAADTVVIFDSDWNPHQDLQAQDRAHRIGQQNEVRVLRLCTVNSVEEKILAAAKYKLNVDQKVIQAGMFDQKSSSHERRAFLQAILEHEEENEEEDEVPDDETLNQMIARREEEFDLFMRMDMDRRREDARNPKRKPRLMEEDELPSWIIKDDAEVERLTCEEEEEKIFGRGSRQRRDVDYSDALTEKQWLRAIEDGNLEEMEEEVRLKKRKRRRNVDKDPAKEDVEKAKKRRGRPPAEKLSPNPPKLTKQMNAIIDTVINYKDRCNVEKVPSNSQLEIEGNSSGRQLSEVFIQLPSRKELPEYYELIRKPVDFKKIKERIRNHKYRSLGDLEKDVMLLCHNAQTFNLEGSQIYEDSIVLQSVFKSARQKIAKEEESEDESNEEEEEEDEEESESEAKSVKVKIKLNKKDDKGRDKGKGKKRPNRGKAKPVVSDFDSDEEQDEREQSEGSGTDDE
Protocol: as §1
The assay reaction mixture […] contains 30 nM of BRM or BRG-1, 20 nM salmon sperm DNA (from Invitrogen, UltraPure™ Salmon Sperm DNA Solution, cat #15632011), and 400 μM of ATP in the ATPase assay buffer, which comprises of 20 mM Tris, pH 8, 20 mM MgCl2, 50 mM NaCl, 0.1% Tween-20, and 1 mM fresh DTT (Pierce™ DTT (Dithiothreitol), cat #20290). The reaction is initiated by the addition of the 2.5 μL ATPase solution to 2.5 μL ATP/DNA solution on low volume white Proxiplate-384 plus plate (PerkinElmer, cat #6008280) and incubates at room temperature for 1 hour. Then, following addition of 5 μL of ADP-Glo™ Reagent provided in the kit, the reaction incubates at room temperature for 40 minutes. Then, 10 μL of Kinase Detection Reagent provided in the kit is added to convert ADP to ATP, and the reaction incubates at room temperature for 60 minutes. Finally, luminescence measurement is collected with a plate-reading luminometer, such as Envision.

[3] = system: BRM-dependent transcription (BRG1 mutant lung cancer cell line A549); assay: BRM-dependent transcription, MMTV luciferase reporter in BRG1 mutant A549 cells; format: cell-based; conditions: Table 11; for IC50: A549-MMTV luciferase reporter, dexamethasone induced, 6 hours; for Ratio (MDA-MMTV IC50 (μM) divided by A549-MMTV IC50 (μM)): MMTV luciferase reporter cell lines, selectivity BRG1/BRM
Summary of the method: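 A549 (BRG1-mutant) cells engineered with a BRM-dependent MMTV luciferase reporter; transcription induced with dexamethasone in presence of compound at various concentrations. Luminescence read 6 h after stimulation.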

T1 sequence (P51532 whole entry): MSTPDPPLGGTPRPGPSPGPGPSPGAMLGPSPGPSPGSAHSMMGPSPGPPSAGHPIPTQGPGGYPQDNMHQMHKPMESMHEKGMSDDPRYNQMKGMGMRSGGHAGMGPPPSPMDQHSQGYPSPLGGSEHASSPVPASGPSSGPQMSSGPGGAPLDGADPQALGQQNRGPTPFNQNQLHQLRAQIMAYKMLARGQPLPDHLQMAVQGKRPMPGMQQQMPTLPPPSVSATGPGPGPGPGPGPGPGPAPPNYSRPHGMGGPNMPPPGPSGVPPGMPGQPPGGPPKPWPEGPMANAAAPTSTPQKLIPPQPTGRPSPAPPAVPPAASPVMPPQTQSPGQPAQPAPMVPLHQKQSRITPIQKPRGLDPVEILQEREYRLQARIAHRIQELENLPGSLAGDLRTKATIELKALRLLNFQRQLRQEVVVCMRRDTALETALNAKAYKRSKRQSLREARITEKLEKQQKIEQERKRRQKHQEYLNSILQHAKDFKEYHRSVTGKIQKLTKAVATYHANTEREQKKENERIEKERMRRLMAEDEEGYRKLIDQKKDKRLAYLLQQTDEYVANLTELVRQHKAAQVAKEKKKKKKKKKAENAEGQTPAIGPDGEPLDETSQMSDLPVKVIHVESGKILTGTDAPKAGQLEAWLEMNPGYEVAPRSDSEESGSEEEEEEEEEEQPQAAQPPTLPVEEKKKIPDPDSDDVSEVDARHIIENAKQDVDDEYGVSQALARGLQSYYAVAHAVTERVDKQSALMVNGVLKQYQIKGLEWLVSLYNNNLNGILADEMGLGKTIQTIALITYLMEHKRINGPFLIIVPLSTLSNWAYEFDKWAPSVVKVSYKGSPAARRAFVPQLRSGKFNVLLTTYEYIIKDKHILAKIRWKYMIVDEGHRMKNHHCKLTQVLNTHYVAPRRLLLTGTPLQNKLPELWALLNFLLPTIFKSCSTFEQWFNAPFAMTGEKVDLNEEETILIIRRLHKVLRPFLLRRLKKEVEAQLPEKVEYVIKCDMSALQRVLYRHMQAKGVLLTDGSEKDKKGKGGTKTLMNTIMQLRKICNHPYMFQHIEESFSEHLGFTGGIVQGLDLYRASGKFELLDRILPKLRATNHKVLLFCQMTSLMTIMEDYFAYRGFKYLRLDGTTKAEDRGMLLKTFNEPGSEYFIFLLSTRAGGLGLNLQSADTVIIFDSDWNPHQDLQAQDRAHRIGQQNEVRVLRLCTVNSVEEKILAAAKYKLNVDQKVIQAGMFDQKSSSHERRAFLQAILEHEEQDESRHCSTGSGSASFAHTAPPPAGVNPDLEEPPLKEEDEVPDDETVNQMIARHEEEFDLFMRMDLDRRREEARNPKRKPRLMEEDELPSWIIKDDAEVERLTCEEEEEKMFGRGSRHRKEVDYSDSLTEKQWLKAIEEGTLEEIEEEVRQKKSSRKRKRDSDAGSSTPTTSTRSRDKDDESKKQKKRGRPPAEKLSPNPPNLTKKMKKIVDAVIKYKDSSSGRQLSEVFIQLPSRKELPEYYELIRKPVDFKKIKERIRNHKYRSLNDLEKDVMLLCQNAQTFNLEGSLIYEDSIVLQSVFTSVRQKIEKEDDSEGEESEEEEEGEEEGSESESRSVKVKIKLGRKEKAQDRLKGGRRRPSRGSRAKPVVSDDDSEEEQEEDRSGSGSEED

IC50 [1] | SMILES | also measured
111 nM | C[C@@H]1CCCN1c1cnc2c(c1)OCCN2c1ccc2cnc(CNC(=O)c3cc(F)c4c(c3)S(=O)(=O)[C@@H](F)CCO4)cc2n1 [Compound 243] | –
154 nM | COc1cc(F)ccc1-c1ccc2cnc(CNC(=O)c3cc(F)c4c(c3)S(=O)(=O)[C@@H](F)CCO4)cc2n1 [Compound 266] | Ratio (BRG1 IC50 (μM) divided by BRM IC50 (μM)) [2]: 18.84; IC50 [2]: 8.7 nM
44 nM | C[C@@H]1OC[C@H](F)S(=O)(=O)c2cc(C(=O)NCc3cc4nc(N5CCOc6cc(C7CC7)cnc65)ccc4cn3)ccc21 [Compound 49] | –
148 nM | O=C(NCc1cc2nc(-c3cncc(N4CCCC4)n3)ccc2cn1)c1cc(F)c2c(c1)S(=O)(=O)[C@@H](F)CCO2 [Compound 220] | –
90.6 nM | C[C@@H]1C[C@H](C)N1c1cnc2c(c1)OCCN2c1ccc2cnc(CNC(=O)c3cc(F)c4c(c3)S(=O)(=O)[C@@H](F)CCO4)cc2n1 [Compound 218] | –
17.9 nM | O=C(NCc1cc2nc(N3CCOc4cc(N5CC(F)C5)cnc43)ccc2cn1)c1ccc2c(c1)S(=O)(=O)[C@@H](F)CCOC2 [Compound 7] | –
72.5 nM | COc1nc(C(F)(F)F)ccc1-c1ccc2cnc(CNC(=O)c3cc(F)c4c(c3)S(=O)(=O)[C@@H](F)COC4)cc2n1 [Compound 127] | –
83 nM | COc1nc(C(F)F)ccc1-c1ccc2cnc(CNC(=O)c3cc(C(F)F)c4c(c3)S(=O)(=O)[C@@H](F)COC4)cc2n1 [Compound 234] | –
103 nM | O=C(NCc1cc2nc(N3CCOc4ccc([C@@H]5C[C@@H]5F)nc43)ccc2cn1)c1cc(F)c2c(c1)S(=O)(=O)[C@@H](F)COC2 [Compound 209] | –
39 nM | CCO[C@@H]1CCN(c2cccc(-c3ccc4cnc(CNC(=O)c5cc(F)c6c(c5)S(=O)(=O)[C@@H](F)CCO6)cc4n3)n2)C1 [Compound 92] | –
76.2 nM | C[C@H]1CCN1c1cnc2c(c1)OCCN2c1ccc2cnc(CNC(=O)c3cc(F)c4c(c3)S(=O)(=O)[C@@H](F)CCO4)cc2n1 [Compound 233] | –
246 nM | COc1nc([C@@H](C)F)ccc1-c1ccc2cnc(CNC(=O)c3cc(Cl)c4c(c3)S(=O)(=O)[C@@H](F)COC4)cc2n1 [Compound 242] | –
82.4 nM | O=C(NCc1cc2nc(N3CCOc4cc(C5CC5)cnc43)ccc2cn1)c1cc(F)c2c(c1)S(=O)(=O)[C@@H](F)CCO2 [Compound 241] | –
351 nM | CCOc1cccc(-c2ccc3cnc(CNC(=O)c4cc(F)c5c(c4)S(=O)(=O)[C@@H](F)CCO5)cc3n2)n1 [Compound 330] | –
123 nM | O=C(NCc1cc2nc(-c3cccc([C@H]4CC4(F)F)n3)ccc2cn1)c1cc(F)c2c(c1)S(=O)(=O)[C@@H](F)COC2 [Compound 128] | –
58.6 nM | CCOc1ccnc2c1OCCN2c1ccc2cnc(CNC(=O)c3cc(Cl)c4c(c3)S(=O)(=O)[C@@H](F)CCO4)cc2n1 [Compound 94] | –
140 nM | O=C(NCc1cc2cc(-c3cccc(C(F)F)n3)ccc2cn1)c1cc(F)c2c(c1)S(=O)(=O)[C@@H](F)COC2 [Compound 232] | –
239 nM | O=C(NCc1cc2nc(N3CCOc4ccc(C(F)F)nc43)ccc2cn1)c1cc(Cl)c2c(c1)S(=O)(=O)[C@@H](F)COC2 [Compound 208] | –
1350 nM | COc1cc(C(=O)NCc2cc3nc(-c4ccc(OC(F)F)c(C5CC5)n4)ccc3cn2)cc2c1COC[C@H](F)S2(=O)=O [Compound 329] | –
42.3 nM | COCCOc1ccc2c(c1)OCCN2c1ccc2cnc(CNC(=O)c3cc(F)c4c(c3)S(=O)(=O)[C@@H](F)CCO4)cc2n1 [Compound 93] | –

Further lines, the molecule ahead of its results:

SMILES | IC50 [1] | also measured
CCOc1ccnc2c1OCCN2c1ccc2cnc(CNC(=O)c3cc(Cl)c4c(c3)S(=O)(=O)[C@@H](F)COC4)cc2n1 [Compound 27] | 19.5 nM | Ratio (BRG1 IC50 (μM) divided by BRM IC50 (μM)) [2]: 11.52; IC50 [2]: 1.8 nM
O=C(NCc1cc2nc(N3CCOc4c(OCC5CC5)ccnc43)ccc2cn1)c1cc(F)c2c(c1)S(=O)(=O)[C@@H](F)CCO2 [Compound 113] | 83.9 nM | Ratio (BRG1 IC50 (μM) divided by BRM IC50 (μM)) [2]: 21.12; IC50 [2]: 4 nM
Cc1cc2c(-c3ccc4cnc(CNC(=O)c5cc(F)c6c(c5)S(=O)(=O)[C@@H](F)CCO6)cc4n3)ccc(F)c2n1C [Compound 68] | 36.2 nM | Ratio (BRG1 IC50 (μM) divided by BRM IC50 (μM)) [2]: 13.58; IC50 [2]: 2.7 nM
O=C(NCc1cc2nc(N3CCOc4c(N5CC6(CC6)C5)ccnc43)ccc2cn1)c1cc(F)c2c(c1)S(=O)(=O)[C@@H](F)COC2 [Compound 212] | 136 nM | –
C[C@H]1C[C@@H]1c1ccc2c(n1)N(c1ccc3cnc(CNC(=O)c4cc(F)c5c(c4)S(=O)(=O)[C@@H](F)COC5)cc3n1)CCO2 [Compound 13] | 24.3 nM | Ratio (BRG1 IC50 (μM) divided by BRM IC50 (μM)) [2]: 14.77; IC50 [2]: 1.5 nM
C[C@@H]1CN(c2cccc(/C=C/c3ccnc(CNC(=O)c4cc(Cl)c5c(c4)S(=O)(=O)[C@@H](F)COC5)c3)n2)C[C@H](C)O1 [Compound 107] | 99 nM | –
O=C(NCc1cc2nc(N3CCOc4cc(OCC(F)F)cnc43)ccc2cn1)c1cc(F)c2c(c1)S(=O)(=O)[C@@H](F)COC2 [Compound 213] | 90.3 nM | –
CO[C@H]1C[C@@H]1N(C)c1cccc(-c2ccc3cnc(CNC(=O)c4cc(F)c5c(c4)S(=O)(=O)[C@@H](F)COC5)cc3n2)n1 [Compound 211] | 61.6 nM | –
[2H]C([2H])([2H])Oc1ccc(-c2ccc3cnc(CNC(=O)c4cc(F)c5c(c4)S(=O)(=O)[C@@H](F)CCO5)cc3n2)nc1C1CC1 [Compound 257] | 108 nM | –
Cc1cnc2c(c1)OCCN2c1ccc2cnc(CNC(=O)c3cc(F)c4c(c3)S(=O)(=O)[C@@H](F)COC4)cc2n1 [Compound 6, (R)-2,6-difluoro-N-((2-(7-methyl-2,3-dihydro-4H-pyrido[3,2-b][1,4]oxazin-4-yl)-1,6-naphthyridin-7-yl)methyl)-2,3-dihydro-5H-benzo[e][1,4]oxathiepine-8-carboxamide 1,1-dioxide] | 21.3 nM | –
C[C@@H]1CCN1c1cc2c(cn1)N(c1ccc3cnc(CNC(=O)c4cc(F)c5c(c4)S(=O)(=O)[C@@H](F)COC5)cc3n1)CCO2 [Compound 214] | 72 nM | –
O=C(NCc1cc2nc(N3CCOc4cc(N5C[C@@H](F)[C@H](F)C5)cnc43)ccc2cn1)c1cc(Cl)c2c(c1)S(=O)(=O)[C@@H](F)CCO2 [Compound 258, (R)-9-chloro-N-((2-(7-((3R,4R)-3,4-difluoropyrrolidin-1-yl)-2,3-dihydro-4H-pyrido[3,2-b][1,4]oxazin-4-yl)-1,6-naphthyridin-7-yl)methyl)-4-fluoro-3,4-dihydro-2H-benzo[b][1,4]oxathiepine-7-carboxamide 5,5-dioxide] | 102 nM | –
O=C(NCc1cc2nc(N3CCOc4ccc(OC(F)F)nc43)ccc2cn1)c1cc(F)c2c(c1)S(=O)(=O)[C@@H](F)CCO2 [Compound 126] | 88.9 nM | –
C#Cc1cc(C(=O)NCc2cc3nc(-c4cccc(N5C[C@@H](C)O[C@@H](C)C5)n4)ccc3cn2)cc2c1OCC[C@H](F)S2(=O)=O [Compound 314] | 4130 nM | –
COCC1CN(c2ccc3c(c2)N(c2ccc4cnc(CNC(=O)c5cc(F)c6c(c5)S(=O)(=O)[C@@H](F)CCO6)cc4n2)CCO3)C1 [Compound 219] | 167 nM | –
CN(C)c1cnc2c(c1)OCCN2c1ccc2cnc(CNC(=O)c3cc(F)c4c(c3)S(=O)(=O)[C@@H](F)CCO4)cc2n1 [Compound 106] | 35.3 nM | –
O=C(NCc1cc2nc(N3CCOc4ccc(N5CCC5)nc43)ccc2cn1)c1cc(F)c2c(c1)S(=O)(=O)[C@@H](F)CCO2 [Compound 264] | 177 nM | –
COc1nc(-c2ccc3cnc(CNC(=O)c4cc(Cl)c5c(c4)S(=O)(=O)[C@@H](F)CCO5)cc3n2)ccc1C(F)F [Compound 360] | – | IC50 ([3]; Homo sapiens, A549, 6 h): 19.9 nM; Ratio (MDA-MMTV IC50 (μM) divided by A549-MMTV IC50 (μM)) [3]: 23.20
COC1(c2cccc(-c3ccc4cnc(CNC(=O)c5cc(F)c6c(c5)S(=O)(=O)[C@@H](F)CCO6)cc4n3)n2)CC1 [Compound 403] | – | IC50 ([3]; Homo sapiens, A549, 6 h): 14 nM; Ratio (MDA-MMTV IC50 (μM) divided by A549-MMTV IC50 (μM)) [3]: 27.49
[2H]C([2H])([2H])Oc1ccc(-c2ccc3cnc(CNC(=O)c4cc(Cl)c5c(c4)S(=O)(=O)[C@@H](F)COC5)cc3n2)nc1C1CC1(F)F (some centres unmarked) [Compound 506] | – | IC50 ([3]; Homo sapiens, A549, 6 h): 10.2 nM; Ratio (MDA-MMTV IC50 (μM) divided by A549-MMTV IC50 (μM)) [3]: 42.09
O=C(NCc1cc2cc(-c3cccc(C4CC4)n3)ccc2cn1)c1cc(F)c2c(c1)S(=O)(=O)[C@@H](F)CCO2 [Compound 291] | 206 nM | –
CCOc1nc([C@@H](F)CF)ccc1-c1ccc2cnc(CNC(=O)c3cc(Br)c4c(c3)S(=O)(=O)[C@@H](F)COC4)cc2n1 [Compound 456] | – | IC50 [3]: 9.7 nM; Ratio (MDA-MMTV IC50 (μM) divided by A549-MMTV IC50 (μM)) [3]: 40.89
